Key:
[1] = molecular target: ErbB2 (HER2) (Homo sapiens, UniProt P04626); conditions: reported in literature; cited from earlier work
[2] = molecular target: EGFR (ErbB1) (Homo sapiens, UniProt P00533); conditions: reported in literature; cited from earlier work
[3] = molecular target: ErbB4 (HER4) (Homo sapiens, UniProt Q15303); conditions: reported in literature; cited from earlier work
[4] = tested on: mutant EGFR; conditions: reported in literature; cited from earlier work
[5] = tested on: Diffuse gastric cancer cells (NUGC4 cells); assay: In vivo test: survival of mice intraperitoneally transplanted with NUGC4 cells; design: species or system Balb/c nu/nu mice; conditions: for mice alive 11 weeks after the gastric cancer cell transplantation / mice alive seven weeks after the gastric cancer cell transplantation: eight mice per therapy, treatment from day 21, AZ5104/osimertinib 10 mg/kg once a day oral, savolitinib 2.5 mg/kg once a day oral, antibody 40 mg/kg twice a week intraperitoneal; for t-test for numbers of mice alive 11 weeks after transplantation compared with the control group: p<0.05
Description: The anti-VEGF receptor 2 antibody used was anti-mouse VEGF receptor 2 antibody DC101 (GeneTex).
Diffuse gastric cancer cells (NUGC4 cells) were transplanted to Balb/c nu/nu mice (6 weeks old) by intraperitoneal administration of 2×10^6 of the cells in 200 μL of phosphate buffered saline (PBS) per mouse. On day 21 after the transplantation, ascites accumulation was confirmed, and treatment was started. The treatment was performed with the following eight kinds of therapies, and eight mice were used for each therapy.
For the control group (vehicle control), only a solution not dissolving any drug was administered once a week. The administration was continued for 4 weeks, and then for another 4 weeks.

[6] = tested on: non-small cell lung cancer with EGFR EX20Ins mutation; conditions: Floc'h et al.; cited from earlier work
[7] = tested on: NUGC4; assay: In vitro cell growth inhibition (CCK-8), diffuse gastric cancer cell line NUGC4; assay type: cell-based, human; conditions: inhibitor 0.001 to 10 μM, 72 hours; for HGF-induced cell growth of NUGC4: HGF 50 ng/mL; for amphiregulin-induced cell growth of NUGC4: amphiregulin 100 ng/mL
Description: (§1) Five types of cell lines (NUGC4, GCIY, MKN7, GCR1 and MKN45) were subcultured in the RPMI 1640 culture medium containing 10% concentration of fetal bovine serum, 100 units/mL concentration of penicillin, and 100 units/mL concentration of antibiotic streptomycin, and used in the following experiments. The cells were periodically examined for the presence of mycoplasma infection by using MycoAlert Mycoplasma Detection Kit (Lonza). Cell growth was measured by using Cell Counting Kit-8 (CCK-8) (Dojin Kagaku Kenkyusho, Kumamoto, Japan) (Ishiyama M., et al., […], 44; 1299:1997). The cells were inoculated at a density of 5×10^4 cells/mL in a volume of 100 μL per well, and incubated at 37° C. for 24 hours in an incubator. Then, any one of three types of cell growth factors, amphiregulin (AP, 100 ng/mL, R&D Systems, Minneapolis, Minn.), heparin-binding EGF-like growth factor (HB-EGF), and hepatocyte growth factor (HGF, 50 ng/mL, R&D Systems), and any one of two types of the EGFR inhibitors, AZ5104 (0.001 to 10 μM) and AST1306 (0.001 to 10 μM)), were added to each well, and the cells were further incubated at 37° C. for 72 hours in an incubator. In addition, to the control wells, any one of the three types of cell growth factors was added, but not the EGFR inhibitor. Further, 10 μL of a WST-8 solution was added to each well, and the cells were cultured at 37° C. for 4 hours. Absorbance was measured at a wavelength of 450 nm by using a microplate reader (BIO-RAD Laboratories, Inc.). All the experiments were performed in triplicate, that is, the same experiment was repeated three times.

[8] = tested on: FVB-2/Nneu transgenic breast cancer; conditions: Hua Xie et al.; cited from earlier work
[9] = tested on: cancer patients; conditions: among 55 evaluable cancer patients, phase I; cited from earlier work
[10] = tested on: normal human gastric fibroblasts; assay: In vitro growth inhibition test for fibroblasts (cell count); assay type: cell-based; conditions: HB-EGF 10 ng/mL, EGF receptor inhibitor 1 μM, 96 hours
[11] = tested on: EGFR-overexpressing tumor xenograft; conditions: Hua Xie et al.; cited from earlier work
[12] = tested on: ErbB2-overexpressing cells; conditions: Hua Xie et al.; cited from earlier work
[13] = tested on: GCR-1; assay: In vitro cell growth inhibition (CCK-8), non-diffuse gastric cancer cell line GCR-1; assay type: cell-based, human; conditions: HGF 50 ng/mL, 72 hours
Description: as §1, with “Further, 10 μL of a WST-8 solution was added to each well, and the cells were cultured at 37° C. for 4 hours.” left out, “All the experiments were performed in triplicate, that is, the same experiment was repeated three times.” left out

[14] = tested on: MKN45; assay: In vitro cell growth inhibition (CCK-8), cMet gene-amplified gastric cancer cell line MKN45; assay type: cell-based, human; conditions: 72 hours
Description: as §1, with “Further, 10 μL of a WST-8 solution was added to each well, and the cells were cultured at 37° C. for 4 hours.” left out, “All the experiments were performed in triplicate, that is, the same experiment was repeated three times.” left out

[15] = tested on: ErbB2-overexpressing adenocarcinoma xenograft; conditions: Hua Xie et al.; cited from earlier work
[16] = tested on: GCIY; assay: In vitro cell growth inhibition (CCK-8), diffuse gastric cancer cell line GCIY; assay type: cell-based, human; conditions: 72 hours; for HB-EGF-induced cell growth of GCIY / HGF-induced cell growth of GCIY / amphiregulin-induced cell growth of GCIY: inhibitor 0.001 to 10 μM; for HGF-induced cell growth of GCIY: HGF 50 ng/mL; for amphiregulin-induced cell growth of GCIY: amphiregulin 100 ng/mL; for baseline cell growth of GCIY: no growth factor added
Description: as §1

[17] = tested on: MKN7; assay: In vitro cell growth inhibition (CCK-8), non-diffuse gastric cancer cell line MKN7; assay type: cell-based, human; conditions: HGF 50 ng/mL, 72 hours
Description: as §1, with “Further, 10 μL of a WST-8 solution was added to each well, and the cells were cultured at 37° C. for 4 hours.” left out, “All the experiments were performed in triplicate, that is, the same experiment was repeated three times.” left out

ErbB4 (HER4), sequence (Q15303 26-1308): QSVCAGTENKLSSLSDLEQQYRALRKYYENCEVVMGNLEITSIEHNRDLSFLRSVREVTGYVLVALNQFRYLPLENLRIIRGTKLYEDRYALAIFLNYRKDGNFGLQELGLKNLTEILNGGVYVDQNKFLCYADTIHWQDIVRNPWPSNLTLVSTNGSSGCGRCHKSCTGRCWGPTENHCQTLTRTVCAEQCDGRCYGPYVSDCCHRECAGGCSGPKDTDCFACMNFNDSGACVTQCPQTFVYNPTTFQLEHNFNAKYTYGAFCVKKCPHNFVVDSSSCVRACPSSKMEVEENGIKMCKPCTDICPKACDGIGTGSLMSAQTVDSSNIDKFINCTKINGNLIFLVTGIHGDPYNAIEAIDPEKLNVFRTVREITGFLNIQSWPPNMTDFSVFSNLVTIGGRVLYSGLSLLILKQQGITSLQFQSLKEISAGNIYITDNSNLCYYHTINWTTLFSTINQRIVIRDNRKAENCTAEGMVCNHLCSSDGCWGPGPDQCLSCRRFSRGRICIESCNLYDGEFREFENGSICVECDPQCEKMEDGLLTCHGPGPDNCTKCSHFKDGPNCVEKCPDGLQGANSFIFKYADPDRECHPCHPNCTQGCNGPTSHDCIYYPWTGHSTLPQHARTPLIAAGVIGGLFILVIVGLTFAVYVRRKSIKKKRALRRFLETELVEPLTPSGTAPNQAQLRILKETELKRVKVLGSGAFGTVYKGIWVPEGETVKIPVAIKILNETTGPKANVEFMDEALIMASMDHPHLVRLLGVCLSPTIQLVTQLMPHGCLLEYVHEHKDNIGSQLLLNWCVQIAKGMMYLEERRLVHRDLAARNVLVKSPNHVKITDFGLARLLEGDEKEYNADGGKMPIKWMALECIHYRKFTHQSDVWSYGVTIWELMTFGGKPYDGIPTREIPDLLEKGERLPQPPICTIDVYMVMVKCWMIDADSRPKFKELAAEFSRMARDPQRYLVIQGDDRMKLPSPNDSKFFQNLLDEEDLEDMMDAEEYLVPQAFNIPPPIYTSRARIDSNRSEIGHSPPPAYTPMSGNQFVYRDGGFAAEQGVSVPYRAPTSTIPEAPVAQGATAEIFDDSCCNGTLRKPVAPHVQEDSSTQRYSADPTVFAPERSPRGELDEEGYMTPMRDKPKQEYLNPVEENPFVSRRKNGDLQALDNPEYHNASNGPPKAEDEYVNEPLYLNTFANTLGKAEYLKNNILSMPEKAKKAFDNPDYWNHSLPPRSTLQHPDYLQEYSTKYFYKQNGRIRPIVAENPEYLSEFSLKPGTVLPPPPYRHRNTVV
ErbB2 (HER2), sequence (P04626 23-1255): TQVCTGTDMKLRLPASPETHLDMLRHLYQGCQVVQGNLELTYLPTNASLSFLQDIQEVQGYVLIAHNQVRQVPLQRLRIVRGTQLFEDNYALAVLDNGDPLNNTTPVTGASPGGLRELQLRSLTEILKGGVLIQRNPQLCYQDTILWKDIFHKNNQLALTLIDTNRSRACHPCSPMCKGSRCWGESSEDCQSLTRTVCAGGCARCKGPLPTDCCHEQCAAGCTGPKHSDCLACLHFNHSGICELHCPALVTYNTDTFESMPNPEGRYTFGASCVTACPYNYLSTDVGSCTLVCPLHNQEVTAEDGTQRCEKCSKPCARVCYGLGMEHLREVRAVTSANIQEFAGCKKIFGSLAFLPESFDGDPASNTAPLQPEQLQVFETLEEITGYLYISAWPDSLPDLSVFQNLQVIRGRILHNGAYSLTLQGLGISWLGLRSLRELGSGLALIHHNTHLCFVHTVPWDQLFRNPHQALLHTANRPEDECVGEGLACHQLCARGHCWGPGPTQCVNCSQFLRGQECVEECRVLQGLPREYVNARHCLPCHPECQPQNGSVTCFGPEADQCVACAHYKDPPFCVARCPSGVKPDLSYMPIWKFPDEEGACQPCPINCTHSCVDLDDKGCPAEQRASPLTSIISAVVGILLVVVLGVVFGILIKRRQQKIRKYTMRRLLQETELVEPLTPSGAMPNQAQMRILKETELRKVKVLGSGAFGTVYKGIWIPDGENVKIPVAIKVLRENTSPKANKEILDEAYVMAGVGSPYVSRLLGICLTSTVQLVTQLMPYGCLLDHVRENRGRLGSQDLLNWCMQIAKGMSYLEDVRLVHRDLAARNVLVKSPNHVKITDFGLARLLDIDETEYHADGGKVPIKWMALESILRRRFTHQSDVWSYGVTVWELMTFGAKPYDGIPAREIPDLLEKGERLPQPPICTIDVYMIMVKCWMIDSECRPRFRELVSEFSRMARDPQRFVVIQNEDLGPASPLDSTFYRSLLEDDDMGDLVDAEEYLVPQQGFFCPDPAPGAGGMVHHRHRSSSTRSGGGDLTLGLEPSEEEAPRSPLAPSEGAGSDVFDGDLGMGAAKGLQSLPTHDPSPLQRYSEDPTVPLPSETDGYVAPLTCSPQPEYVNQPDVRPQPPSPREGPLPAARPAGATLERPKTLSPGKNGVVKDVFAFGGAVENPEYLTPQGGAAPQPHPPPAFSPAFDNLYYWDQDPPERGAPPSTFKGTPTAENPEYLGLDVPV
EGFR (ErbB1), sequence (P00533 25-1210): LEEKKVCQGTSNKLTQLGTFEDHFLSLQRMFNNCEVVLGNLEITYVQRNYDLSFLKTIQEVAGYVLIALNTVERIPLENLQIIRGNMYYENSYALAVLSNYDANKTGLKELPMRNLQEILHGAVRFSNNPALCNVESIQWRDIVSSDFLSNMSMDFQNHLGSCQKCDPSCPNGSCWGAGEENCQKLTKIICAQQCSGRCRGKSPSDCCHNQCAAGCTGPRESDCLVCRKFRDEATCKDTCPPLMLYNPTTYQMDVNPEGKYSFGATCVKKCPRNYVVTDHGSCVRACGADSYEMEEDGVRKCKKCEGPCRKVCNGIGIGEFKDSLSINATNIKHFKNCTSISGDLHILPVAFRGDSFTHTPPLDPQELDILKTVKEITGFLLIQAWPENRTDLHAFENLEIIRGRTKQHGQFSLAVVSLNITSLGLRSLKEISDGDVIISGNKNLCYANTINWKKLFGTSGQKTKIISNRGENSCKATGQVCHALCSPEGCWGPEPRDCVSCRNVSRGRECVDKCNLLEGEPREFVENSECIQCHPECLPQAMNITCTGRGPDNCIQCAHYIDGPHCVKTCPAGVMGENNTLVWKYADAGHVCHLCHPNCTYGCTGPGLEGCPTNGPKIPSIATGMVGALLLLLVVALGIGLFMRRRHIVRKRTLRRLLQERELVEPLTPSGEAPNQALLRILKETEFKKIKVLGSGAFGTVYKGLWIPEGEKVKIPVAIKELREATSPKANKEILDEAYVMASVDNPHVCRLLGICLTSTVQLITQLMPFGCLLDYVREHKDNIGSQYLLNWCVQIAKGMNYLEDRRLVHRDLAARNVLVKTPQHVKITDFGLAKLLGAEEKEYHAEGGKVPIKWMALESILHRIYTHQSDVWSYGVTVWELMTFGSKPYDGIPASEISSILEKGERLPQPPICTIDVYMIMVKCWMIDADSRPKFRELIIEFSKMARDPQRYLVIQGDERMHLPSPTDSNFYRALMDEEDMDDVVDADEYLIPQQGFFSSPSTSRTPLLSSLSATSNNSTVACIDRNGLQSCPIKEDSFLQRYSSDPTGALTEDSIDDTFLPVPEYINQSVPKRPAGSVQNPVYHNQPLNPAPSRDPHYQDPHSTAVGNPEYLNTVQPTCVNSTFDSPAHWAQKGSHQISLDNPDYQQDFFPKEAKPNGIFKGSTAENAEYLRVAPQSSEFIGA

## COc1cc2ncnc(Nc3ccc(F)c(Cl)c3)c2cc1NC(=O)/C=C/CN1CCCCC1 [dacomitinib]
[1]
  inhibition of ErbB2 (HER2): inhibit
[2]
  inhibition of EGFR (ErbB1): inhibit
[3]
  inhibition of ErbB4 (HER4): inhibit

## C=CC(=O)N1CCC(Oc2cc3c(Nc4ccc(Cl)c(Cl)c4F)ncnc3cc2OC)CC1 [poziotinib, 1-(4-(4-(3,4-dichloro-2-fluorophenylamino)-7-methoxyquinazolin-6-yloxy)piperidin-1-yl)prop-2-en-1-one]
[1]
  inhibition of ErbB2 (HER2): inhibit
[2]
  inhibition of EGFR (ErbB1): inhibit
[3]
  inhibition of ErbB4 (HER4): inhibit

## C=CC(=O)Nc1cc(Nc2nccc(-c3cn(C)c4ccccc34)n2)c(OC)cc1N(C)CCN(C)C [osimertinib, 2-propenamide, N-[2-[[2-(dimethylamino)ethyl]methylamino]-4-methoxy-5-[[4-(1-methyl-1H-indol-3-yl)-2-pyrimidinyl]amino]phenyl]-]
[1]
  inhibition of ErbB2 (HER2): inhibitory activities
[4]
  inhibitory activity against mutant EGFR: inhibitory activity
[3]
  inhibition of ErbB4 (HER4): inhibitory activities
[5]
  mice alive 11 weeks after the gastric cancer cell transplantation: 2 mice
  t-test for numbers of mice alive 11 weeks after transplantation compared with the control group: significant differences
[6]
  tumor growth in mice transplanted with non-small cell lung cancer with EGFR EX20Ins mutation: inhibit

## CC(C)(O)CC(=O)NCCn1ccc2ncnc(Nc3ccc(Oc4cccc(C(F)(F)F)c4)c(Cl)c3)c21 [TAK-285, N-(2-(4-(3-chloro-4-(3-(trifluoromethyl)phenoxy)phenylamino)-5H-pyrrolo[3,2-d]pyrimidin-5-yl)ethyl)-3-hydroxy-3-methylbutanamide]
[1]
  inhibition of ErbB2 (HER2): inhibit
[3]
  inhibition of ErbB4 (HER4): inhibit

## Cc1c(NC(=O)OC[C@@H]2COCCN2)cn2ncnc(Nc3ccc4c(cnn4Cc4cccc(F)c4)c3)c12 [AC480, (S)-morpholin-3-ylmethyl 4-(1-(3-fluorobenzyl)-1H-indazol-5-ylamino)-5-methylpyrrolo[1,2-f][1,2,4]triazine-6-carbamate]
[1]
  inhibition of ErbB2 (HER2): inhibit
[2]
  inhibition of EGFR (ErbB1): inhibit
[3]
  inhibition of ErbB4 (HER4): inhibit

## CS(=O)(=O)CCNCc1ccc(-c2ccc3ncnc(Nc4ccc(OCc5cccc(F)c5)c(Cl)c4)c3c2)o1 [lapatinib]
[1]
  inhibition of ErbB2 (HER2): inhibit
[3]
  inhibition of ErbB4 (HER4): inhibit

## C[C@@H](c1ccc2nccn2c1)n1nnc2ncc(-c3cnn(C)c3)nc21 [savolitinib]
[5]
  mice alive 11 weeks after the gastric cancer cell transplantation: all died
  mice alive seven weeks after the gastric cancer cell transplantation: 2 mice
  t-test for numbers of mice alive 11 weeks after transplantation compared with the control group: no significant difference

## C=CC(=O)Nc1ccc2ncnc(Nc3ccc(OCc4cccc(F)c4)c(Cl)c3)c2c1.Cc1ccc(S(=O)(=O)O)cc1 [AST1306, 2-propenamide, N-[4-[[3-chloro-4-[(3-fluorophenyl)methoxy]phenyl]amino]-6-quinazolinyl]-, 4-methylbenzenesulfonate (1:1)]
[7]
  HB-EGF-induced cell growth of NUGC4: inhibited
  HGF-induced cell growth of NUGC4: inhibited
  amphiregulin-induced cell growth of NUGC4: inhibited
[8]
  tumor growth in FVB-2/Nneu transgenic breast cancer mice: potently inhibited
[9]
  partial remission: 7 patients
  stability (stability over 6 months or longer): 7 patients
[1]
  inhibition of ErbB2 (HER2): irreversible inhibitor
[10]
  HB-EGF-induced cell growth of normal human gastric fibroblasts: inhibited
[11]
  tumor growth in EGFR-overexpressing tumor xenografted mice: weakly inhibited
[12]
  growth inhibitory effect in ErbB2-overexpressing cells: more potent
[13]
  concentration at which HGF-induced cell growth of GCR-1 was inhibited: ≥ 0.3 µM
[2]
  inhibition of EGFR (ErbB1): irreversible inhibitor
[3]
  inhibition of ErbB4 (HER4): irreversible inhibitor
[14]
  concentration at which cell growth of MKN45 was inhibited: ≥ 1 µM
[15]
  tumor growth in ErbB2-overexpressing adenocarcinoma xenografted mice: potently inhibited
[16]
  HB-EGF-induced cell growth of GCIY: inhibited
  HGF-induced cell growth of GCIY: inhibited
  amphiregulin-induced cell growth of GCIY: inhibited
  baseline cell growth of GCIY: inhibited
[17]
  concentration at which HGF-induced cell growth of MKN7 was inhibited: ≥ 0.3 µM

## C=CC(=O)Nc1cc(Nc2nccc(-c3c[nH]c4ccccc34)n2)c(OC)cc1N(C)CCN(C)C [AZ5104, N-(5-(4-(1H-indol-3-yl)pyrimidin-2-ylamino)-2-((2-(dimethylamino)ethyl)(methyl)amino)-4-methoxyphenyl)acrylamide]
[7]
  HB-EGF-induced cell growth of NUGC4: inhibited
  HGF-induced cell growth of NUGC4: inhibited
  amphiregulin-induced cell growth of NUGC4: inhibited
[1]
  inhibition of ErbB2 (HER2): inhibitory activities
[10]
  HB-EGF-induced cell growth of normal human gastric fibroblasts: inhibited
[4]
  inhibitory activity against mutant EGFR: inhibitory activity
[13]
  concentration at which HGF-induced cell growth of GCR-1 was inhibited: ≥ 0.3 µM
[2]
  inhibition of EGFR (ErbB1): inhibitory activities
[3]
  inhibition of ErbB4 (HER4): inhibitory activities
[14]
  concentration at which cell growth of MKN45 was inhibited: ≥ 1 µM
[16]
  HB-EGF-induced cell growth of GCIY: inhibited
  HGF-induced cell growth of GCIY: inhibited
  amphiregulin-induced cell growth of GCIY: inhibited
  baseline cell growth of GCIY: inhibited
[5]
  mice alive 11 weeks after the gastric cancer cell transplantation: all died
  mice alive seven weeks after the gastric cancer cell transplantation: one
  t-test for numbers of mice alive 11 weeks after transplantation compared with the control group: significant differences
[6]
  tumor growth in mice transplanted with non-small cell lung cancer with EGFR EX20Ins mutation: inhibit
[17]
  concentration at which HGF-induced cell growth of MKN7 was inhibited: ≥ 0.3 µM

## CCN1CCN(Cc2ccc(-c3cc4c(N[C@H](C)c5ccccc5)ncnc4[nH]3)cc2)CC1 [AEE788, (R)-6-(4-((4-ethylpiperazin-1-yl)methyl)phenyl)-N-(1-phenylethyl)-7H-pyrrolo[2,3-d]pyrimidin-4-amine]
[1]
  inhibition of ErbB2 (HER2): inhibit
[2]
  inhibition of EGFR (ErbB1): inhibit
[3]
  inhibition of ErbB4 (HER4): inhibit

Source: US20220008419A1, “PHARMACEUTICAL COMPOSITION FOR TREATING DIFFUSE-TYPE GASTRIC CANCER” (KANAZAWA MEDICAL UNIVERSITY, priority 2018, published 2022)
